Data published in patent US12276654B2, “Chemical probe-dependent evaluation of protein activity and uses thereof” (The University of Chicago, priority 2017, dated 2025).
Where two headings read alike, the source gives them in different places.

Tests used:
NCEH1 [1] = target: T1, NCEH1 (Homo sapiens, UniProt Q6PIU2); experiment: sADPL target engagement in patient-derived hPBMCs; assay type: cell-based; parameters: The human peripheral blood mononuclear cells (hPBMCs) were extracted from patient-derived blood samples; endogenous in cells; host or cells: primary human PBMCs from patient blood; details: hPBMCs from patient-derived blood; inhibitor prior to family-wide probe
T1 sequence (Q6PIU2 1-408): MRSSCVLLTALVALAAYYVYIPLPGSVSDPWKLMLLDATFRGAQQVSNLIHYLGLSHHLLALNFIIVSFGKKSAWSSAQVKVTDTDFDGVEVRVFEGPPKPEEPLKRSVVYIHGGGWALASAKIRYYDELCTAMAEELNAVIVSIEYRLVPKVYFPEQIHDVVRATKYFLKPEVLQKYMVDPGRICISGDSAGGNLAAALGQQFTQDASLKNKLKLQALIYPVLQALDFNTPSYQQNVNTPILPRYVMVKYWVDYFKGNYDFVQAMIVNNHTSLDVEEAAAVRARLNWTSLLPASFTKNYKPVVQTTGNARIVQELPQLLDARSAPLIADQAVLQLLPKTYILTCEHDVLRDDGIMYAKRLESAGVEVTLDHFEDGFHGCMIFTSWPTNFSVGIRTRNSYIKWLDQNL
Procedure: FIG. 24. Target Engagement in Patient-derived PBMCs. The human peripheral blood mononuclear cells (hPBMCs) were extracted from patient-derived blood samples. Likewise, hPBMCs were treated with DMSO as the control, with inhibitor prior to family wide probe to pre-block the active site, or with family-wide probe directly. Then sADPL workflow was applied to read out the CT difference.

NCEH1 [2] = target: T1, NCEH1; experiment: ADPL imaging and quantification of endogenous NCEH1 activity in live cells (inhibitor profiling by ADPL); assay type: cell-based; parameters: endogenous NCEH1 activity in SKOV3 cells; endogenous in cells; host or cells: SKOV3; wild-type PC3; PAFAH2-expressing PC3; details: for IC50: inhibitor 4 hr before FP-Bio (2 μM, 40 min), read-out: apparent IC50, inhibition of NCEH1 by ADPL
Procedure: Cells were seeded in the 12-well chamber slide, typically at 10,000-30,000 cells per well (Ibidi, #81201). To get an even distribution of the cells, the chamber slide was pre-wetted with cell culture medium, drained off, and the chamber was left at room temperature for 5-10 min after seeding. Cells at 80-90% confluency were pulse treated with either FP-Bio (2 μM) in DMEM and incubated at 37° C. for 40 min or Capthepsin probe (5 μM) in complete medium and incubated at 37° C. for 3 hr. Cells were washed with PBS, fixed with 4% paraformaldehyde in PBS at room temperature for 15 minutes, washed twice with PBS for 5 minutes each at room temperature with orbital shaking and then permeabilized in 0.5% Triton X-100 in PBS at room temperature for 15 minutes. Finally, cells were washed twice with 0.05% Tween-20 in PBS for 5 minutes each at room temperature with orbital shaking.
Prior to antibody incubation, the chamber was removed and the well boundaries delineated with the hydrophobic barrier pen (Vector laboratories, #H-4000). One-drop Duolink blocking buffer (Sigma, #DUO92004) was added and the slide was incubated at 37° C. for 30 minutes in a humidified chamber. The blocking solution was removed by tapping, followed by addition of 10 μg/ml of the anti-biotin (rabbit, Abcam, #G196266) and primary antibody for the protein of interest: anti-FLAG (mouse, 4 μg/ml of Sigma, #F1804-5 mg); anti-NCEH1 (mouse, 4 μg/ml of in-house polyclonal), anti-FAAH (mouse, 4 μg/ml of Abcam, #ab54615) for serine hydrolase members. […]
For quantitative analysis single cell boundaries were identified manually using the DIC image. Then the “ROI Manager” tool in Image) was utilized to add all the cell outlines as a collection and overlay with the ADPL channel to measure per-cell fluorescence intensity. Typical quantitative comparisons were made using data from three or more independent fields of view per independent biological replicate condition. […]

`CC(C)c1ccccc1OC(=O)NCCc1ccc2ccccc2c1` [JW480] was tested, and the “activity in inhibitor competition group by sADPL in hPBMCs” value (NCEH1 [1]) was “bring the activities down to the levels of DMSO controls”, the IC50 (NCEH1 [2]; PAFAH2 expressing PC3 cells) was 8 nM and the “NCEH1 activity by ADPL imaging and quantification relative to vehicle” value (NCEH1 [2]; SKOV3 cells, 1 μM, 4 hr pre-treatment before FP-Bio) was “significantly reduced”. The IC50 (NCEH1 [2]; wild-type PC3 cells) was 6 nM.
